The source made the active and inactive calls. How the calls were made is not given here.
Test system: CCRIS mutagenicity, Ames/micronucleus/aberration tests
Test: CCRIS mutagenicity studies
[1] = Test System: AMES SALMONELLA TYPHIMURIUM, Strain/Indicator: TA98, Metabolic Activation: NONE, Method: PREINCUBATION
[2] = Test System: AMES SALMONELLA TYPHIMURIUM, Strain/Indicator: TA100, Metabolic Activation: NONE, Method: PREINCUBATION
[3] = Test System: AMES SALMONELLA TYPHIMURIUM, Strain/Indicator: TA1535, Metabolic Activation: NONE, Method: PREINCUBATION
[4] = Test System: AMES SALMONELLA TYPHIMURIUM, Strain/Indicator: TA98, Metabolic Activation: NONE, Method: STANDARD PLATE

CCNNCC
mutagenic call [1]: inactive; negative | mutagenic call (Test System: AMES SALMONELLA TYPHIMURIUM, Strain/Indicator: TA98, Metabolic Activation: RAT LIVER S-9, PHENOBARBITAL AND BETA-NAPHTHOFLAVONE, Method: PREINCUBATION): inactive; negative | mutagenic call [2]: inactive; negative | mutagenic call (Test System: AMES SALMONELLA TYPHIMURIUM, Strain/Indicator: TA100, Metabolic Activation: NONE, Method: PREINCUBATION (11 HR GROWTH PERIOD FOR BACTERIA)): active; positive | mutagenic call (Test System: AMES SALMONELLA TYPHIMURIUM, Strain/Indicator: TA100, Metabolic Activation: RAT LIVER S-9, PHENOBARBITAL AND BETA-NAPHTHOFLAVONE, Method: PREINCUBATION): inactive; negative | mutagenic call (Test System: AMES SALMONELLA TYPHIMURIUM, Strain/Indicator: TA100, Metabolic Activation: RAT, LIVER, S-9, PCB, Method: PREINCUBATION (11 HR GROWTH PERIOD FOR BACTERIA)): inactive; negative | mutagenic call (Test System: AMES SALMONELLA TYPHIMURIUM, Strain/Indicator: TA102, Metabolic Activation: NONE, Method: PREINCUBATION): inactive; negative | mutagenic call (Test System: AMES SALMONELLA TYPHIMURIUM, Strain/Indicator: TA102, Metabolic Activation: NONE, Method: PREINCUBATION (5 OR 7 HR GROWTH PERIOD FOR BACTERIA)): active; positive | mutagenic call (Test System: AMES SALMONELLA TYPHIMURIUM, Strain/Indicator: TA102, Metabolic Activation: NONE, Method: PREINCUBATION (11 HR GROWTH PERIOD FOR BACTERIA)): inactive; negative | mutagenic call (Test System: AMES SALMONELLA TYPHIMURIUM, Strain/Indicator: TA102, Metabolic Activation: RAT LIVER S-9, PHENOBARBITAL AND BETA-NAPHTHOFLAVONE, Method: PREINCUBATION): inactive; negative | mutagenic call (Test System: AMES SALMONELLA TYPHIMURIUM, Strain/Indicator: TA102, Metabolic Activation: RAT, LIVER, S-9, PCB, Method: PREINCUBATION (5 OR 7 HR GROWTH PERIOD FOR BACTERIA)): inactive; negative | mutagenic call (Test System: AMES SALMONELLA TYPHIMURIUM, Strain/Indicator: TA104, Metabolic Activation: NONE, Method: PREINCUBATION): inactive; negative | mutagenic call (Test System: AMES SALMONELLA TYPHIMURIUM, Strain/Indicator: TA104, Metabolic Activation: RAT LIVER S-9, PHENOBARBITAL AND BETA-NAPHTHOFLAVONE, Method: PREINCUBATION): inactive; negative | mutagenic call [3]: inactive; negative | mutagenic call (Test System: AMES SALMONELLA TYPHIMURIUM, Strain/Indicator: TA1535, Metabolic Activation: RAT LIVER S-9, PHENOBARBITAL AND BETA-NAPHTHOFLAVONE, Method: PREINCUBATION): inactive; negative | mutagenic call (Test System: AMES SALMONELLA TYPHIMURIUM, Strain/Indicator: TA1537, Metabolic Activation: NONE, Method: PREINCUBATION): inactive; negative | mutagenic call (Test System: AMES SALMONELLA TYPHIMURIUM, Strain/Indicator: TA1537, Metabolic Activation: RAT LIVER S-9, PHENOBARBITAL AND BETA-NAPHTHOFLAVONE, Method: PREINCUBATION): inactive; negative | mutagenic call (Test System: E.COLI, Strain/Indicator: WP2UVRA/PKM101, Metabolic Activation: NONE, Method: PREINCUBATION): inactive; negative | mutagenic call (Test System: E.COLI, Strain/Indicator: WP2UVRA/PKM101, Metabolic Activation: RAT LIVER S-9, PHENOBARBITAL AND BETA-NAPHTHOFLAVONE, Method: PREINCUBATION): inactive; negative | mutagenic call (Test System: E.COLI, Strain/Indicator: WP2UVRA, Metabolic Activation: NONE, Method: PREINCUBATION): inactive; negative | mutagenic call (Test System: E.COLI, Strain/Indicator: WP2UVRA, Metabolic Activation: RAT LIVER S-9, PHENOBARBITAL AND BETA-NAPHTHOFLAVONE, Method: PREINCUBATION): inactive; negative

CN1C(CSCC(F)(F)F)Nc2cc(Cl)c(S(N)(=O)=O)cc2S1(=O)=O (centres undefined)
mutagenic call (Test System: AMES SALMONELLA TYPHIMURIUM, Strain/Indicator: TA97, Metabolic Activation: HAMSTER, LIVER, S-9, AROCLOR 1254 (10 OR 30%), Method: PREINCUBATION): inactive; negative | mutagenic call (Test System: AMES SALMONELLA TYPHIMURIUM, Strain/Indicator: TA97, Metabolic Activation: NONE, Method: PREINCUBATION): inactive; negative | mutagenic call (Test System: AMES SALMONELLA TYPHIMURIUM, Strain/Indicator: TA97, Metabolic Activation: RAT, LIVER, S-9, AROCLOR 1254 (10 OR 30%), Method: PREINCUBATION): inactive; negative | mutagenic call (Test System: AMES SALMONELLA TYPHIMURIUM, Strain/Indicator: TA98, Metabolic Activation: HAMSTER, LIVER, S-9, AROCLOR 1254 (10 OR 30%), Method: PREINCUBATION): inactive; negative | mutagenic call [1]: inactive; negative | mutagenic call (Test System: AMES SALMONELLA TYPHIMURIUM, Strain/Indicator: TA98, Metabolic Activation: RAT, LIVER, S-9, AROCLOR 1254 (10 OR 30%), Method: PREINCUBATION): inactive; negative | mutagenic call (Test System: AMES SALMONELLA TYPHIMURIUM, Strain/Indicator: TA100, Metabolic Activation: HAMSTER, LIVER, S-9, AROCLOR 1254 (10 OR 30%), Method: PREINCUBATION): inactive; negative | mutagenic call [2]: inactive; negative | mutagenic call (Test System: AMES SALMONELLA TYPHIMURIUM, Strain/Indicator: TA100, Metabolic Activation: RAT, LIVER, S-9, AROCLOR 1254 (10 OR 30%), Method: PREINCUBATION): inactive; negative | mutagenic call (Test System: AMES SALMONELLA TYPHIMURIUM, Strain/Indicator: TA1535, Metabolic Activation: HAMSTER, LIVER, S-9, AROCLOR 1254 (10 OR 30%), Method: PREINCUBATION): inactive; negative | mutagenic call [3]: inactive; negative | mutagenic call (Test System: AMES SALMONELLA TYPHIMURIUM, Strain/Indicator: TA1535, Metabolic Activation: RAT, LIVER, S-9, AROCLOR 1254 (10 OR 30%), Method: PREINCUBATION): inactive; negative

[Cd]
mutagenic call [4]: inactive; negative | mutagenic call (Test System: AMES SALMONELLA TYPHIMURIUM, Strain/Indicator: TA98, Metabolic Activation: RAT, LIVER, S-9, PHENOBARBITAL, Method: STANDARD PLATE): inactive; negative | mutagenic call (Test System: AMES SALMONELLA TYPHIMURIUM, Strain/Indicator: TA102, Metabolic Activation: NONE, Method: STANDARD PLATE): active; positive | mutagenic call (Test System: AMES SALMONELLA TYPHIMURIUM, Strain/Indicator: TA102, Metabolic Activation: RAT, LIVER, S-9, PHENOBARBITAL, Method: STANDARD PLATE): inactive; negative | mutagenic call (Test System: AMES SALMONELLA TYPHIMURIUM, Strain/Indicator: TA1535, Metabolic Activation: NONE, Method: STANDARD PLATE): inactive; negative | mutagenic call (Test System: AMES SALMONELLA TYPHIMURIUM, Strain/Indicator: TA1535, Metabolic Activation: RAT, LIVER, S-9, PHENOBARBITAL, Method: STANDARD PLATE): inactive; negative | mutagenic call (Test System: AMES SALMONELLA TYPHIMURIUM, Strain/Indicator: TA1537, Metabolic Activation: NONE, Method: STANDARD PLATE): inactive; negative | mutagenic call (Test System: AMES SALMONELLA TYPHIMURIUM, Strain/Indicator: TA1537, Metabolic Activation: RAT, LIVER, S-9, PHENOBARBITAL, Method: STANDARD PLATE): inactive; negative

O=[N+]([O-])c1cc2c3c(ccc4cccc(c43)CC2)c1
mutagenic call (Test System: AMES SALMONELLA TYPHIMURIUM, Strain/Indicator: TA98(1,8-DNP6), Metabolic Activation: NONE, Method: STANDARD PLATE): active; positive | mutagenic call (Test System: AMES SALMONELLA TYPHIMURIUM, Strain/Indicator: TA98(NR), Metabolic Activation: NONE, Method: STANDARD PLATE): active; positive | mutagenic call [4]: active; positive

Source: PubChem BioAssay AID1259407 (Chemical Carcinogenesis Research Information System (CCRIS), 2018)
